Where two headings read alike, the source gives them in different places.
Experiments:
[1] = target: T1, ENT2 (Homo sapiens, UniProt Q14542); conditions: Table 1, different ring systems at the 4- and 8-positions; cited from earlier work
T1 sequence (Q14542 1-456): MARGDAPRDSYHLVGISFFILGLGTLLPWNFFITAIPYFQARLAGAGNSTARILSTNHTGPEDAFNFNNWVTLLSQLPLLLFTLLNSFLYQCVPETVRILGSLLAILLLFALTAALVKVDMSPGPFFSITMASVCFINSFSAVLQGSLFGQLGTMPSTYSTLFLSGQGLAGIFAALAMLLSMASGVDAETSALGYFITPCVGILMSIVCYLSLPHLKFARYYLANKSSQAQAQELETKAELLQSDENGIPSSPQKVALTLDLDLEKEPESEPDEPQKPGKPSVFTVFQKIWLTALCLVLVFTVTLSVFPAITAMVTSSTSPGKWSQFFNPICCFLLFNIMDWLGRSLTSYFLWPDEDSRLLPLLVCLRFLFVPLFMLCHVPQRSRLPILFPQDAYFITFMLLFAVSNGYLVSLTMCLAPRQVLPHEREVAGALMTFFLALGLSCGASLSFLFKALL

[2] = target: T2, hENT4 (Homo sapiens, UniProt Q7RTT9); conditions: Table 1, different ring systems at the 4- and 8-positions; cited from earlier work
T2 sequence (Q7RTT9 1-530): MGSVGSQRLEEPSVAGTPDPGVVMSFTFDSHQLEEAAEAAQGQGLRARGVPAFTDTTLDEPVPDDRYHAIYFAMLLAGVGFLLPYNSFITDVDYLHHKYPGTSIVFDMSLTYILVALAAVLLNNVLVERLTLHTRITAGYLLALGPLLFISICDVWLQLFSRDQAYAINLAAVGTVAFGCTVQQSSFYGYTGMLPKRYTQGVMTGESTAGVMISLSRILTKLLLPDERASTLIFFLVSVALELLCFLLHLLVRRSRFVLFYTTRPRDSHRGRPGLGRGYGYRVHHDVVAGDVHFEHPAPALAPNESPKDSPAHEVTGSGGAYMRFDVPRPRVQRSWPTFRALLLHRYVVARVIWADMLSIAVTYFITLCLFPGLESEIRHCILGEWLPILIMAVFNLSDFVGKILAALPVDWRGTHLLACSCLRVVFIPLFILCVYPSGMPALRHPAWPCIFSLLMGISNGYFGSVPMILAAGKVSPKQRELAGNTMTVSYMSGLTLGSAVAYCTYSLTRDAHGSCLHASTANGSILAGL

[3] = target: T1, ENT2; conditions: Ward et al. 2000; SenGupta et al. 2002; cited from earlier work
[4] = target: T2, hENT4; conditions: cited from earlier work
[5] = target: T1, ENT2; conditions: ENT2-dependent transduction; cited from earlier work
[6] = system: TNBC brain metastases (231-BR cells); type: in vivo; conditions: 20 mg/kg tail vein 3x/week for 4 weeks
Protocol: TNBC brain metastases were generated in mice by intracardiac injection of luciferase-expressing 231-BR cells. Mice were treated with tail vein injection of control (PBS) or h3E10 di-scFv (20 mg/kg) 3×/week for 4 weeks, and brain metastases were tracked by IVIS.

[7] = system: hCMEC/D3 Transwell filter BBB model; assay: Transwell filter model of the human BBB (hCMEC/D3 and normal human astrocytes); type: in vitro ADME; conditions: basolateral chamber one hour after addition to apical chamber, western blot

Molecule | IC50 [1] [nM] | IC50 [2] [nM] | IC50 [3] [nM] | inhibition of hENT4 (in words) [4] | inhibition of intranuclear transduction of mouse 3E10 Fv [5] | growth of brain metastases (radiance by IVIS) [6] | median survival ([6]; control 38 days, P<0.02) [days] | transport of h3E10 di-scFv across Transwell filter BBB model [7]
O=[N+]([O-])c1ccc(CSc2ncnc3c2ncn3[C@@H]2O[C@H](CO)[C@@H](O)[C@H]2O)cc1 [NBMPR] | 1350 | 2330 | 2800 | moderate inhibitors | inhibited | – | – | –
h3E10 di-scFv: modified, humanized 3E10 lupus autoantibody di-scFv, SEQ ID NO:70, Variant 13 (protein) scFv: DIQMTQSPSSLSASLGDRATITCRASKTVSTSSYSYMHWYQQKPGQPPKLLIKYASYLESGVPSRFSGSGSGTDFTLTISSLQPEDAATYYCQHSREFPWTFGGGTKVEIKRADAAPGGGGSGGGGSGGGGSEVQLVESGGGLVQPGGSLRLSCAASGFTFSNYGMHWVRQAPGKGLEWVSYISSGSSTIYYADSVKGRFTISRDNAKNSLYLQMNSLRAEDTAVYYCARRGLLLDYWGQGTTVTVSSASTKGPSVFPLAPLESSGSDIQMTQSPSSLSASLGDRATITCRASKTVSTSSYSYMHWYQQKPGQPPKLLIKYASYLESGVPSRFSGSGSGTDFTLTISSLQPEDAATYYCQHSREFPWTFGGGTKVEIKRADAAPGGGGSGGGGSGGGGSEVQLVESGGGLVQPGGSLRLSCAASGFTFSNYGMHWVRQAPGKGLEWVSYISSGSSTIYYADSVKGRFTISRDNAKNSLYLQMNSLRAEDTAVYYCARRGLLLDYWGQGTTVTVSS | – | – | – | – | – | Suppresses Tumor Growth | 52 | crosses
